Measurements published in the NIST ThermoML archive (doi:10.1021/je060271a).

Settings: 323.15 K, Liquid, Vibrating tube method

CCCC(=O)OCC(COC(=O)CCC)(COC(=O)CCC)COC(=O)CCC [pentaerythritol tetrabutyrate]
Settings | mass density [kg/m3]
6544.6 kPa | 1029.7
6573.1 kPa | 1029.6
6601.4 kPa | 1029.8
6630.4 kPa | 1029.8
6664.6 kPa | 1029.8
6693.3 kPa | 1029.7
6722.9 kPa | 1029.8
6752.8 kPa | 1029.7
6788.3 kPa | 1029.8
6819.1 kPa | 1029.9
6850.5 kPa | 1029.9
6881.6 kPa | 1030
6918.6 kPa | 1030
6950.2 kPa | 1029.9
6982.9 kPa | 1030
7021.5 kPa | 1030
7051.8 kPa | 1029.9
7078.5 kPa | 1030
7111.5 kPa | 1030.1
7138.8 kPa | 1030.1
7165.9 kPa | 1030.2
7198.9 kPa | 1030.1
7227.1 kPa | 1030.2
7255.4 kPa | 1030.1
7284.6 kPa | 1030.2
7319.5 kPa | 1030.1
7348.8 kPa | 1030.3
7378.7 kPa | 1030.3
7408.9 kPa | 1030.2
7446.2 kPa | 1030.3
7476.6 kPa | 1030.3
7507.3 kPa | 1030.3
7538.2 kPa | 1030.3
7569.8 kPa | 1030.5
7607.4 kPa | 1030.5
7638.7 kPa | 1030.6
7671.1 kPa | 1030.6
7709.5 kPa | 1030.4
7742.2 kPa | 1030.6
7775.2 kPa | 1030.6
7809.6 kPa | 1030.6
7843.9 kPa | 1030.6
7885.3 kPa | 1030.6
7920.5 kPa | 1030.6
7953.8 kPa | 1030.7
7983 kPa | 1030.8
8018.4 kPa | 1030.7
8049.1 kPa | 1030.6
8080.2 kPa | 1030.7
8117.6 kPa | 1030.9
8149.2 kPa | 1030.7
8176.4 kPa | 1030.7
8203 kPa | 1030.9
8233.4 kPa | 1031
8258.9 kPa | 1030.8
8285.5 kPa | 1030.9
8312 kPa | 1031.1
8343.3 kPa | 1030.9
8369.3 kPa | 1030.9
8401.7 kPa | 1031.1
8428.3 kPa | 1031.1
8455.7 kPa | 1031
8482.6 kPa | 1031.1
8515.8 kPa | 1031.2
8543.4 kPa | 1031.1
8571.8 kPa | 1031.1
8605.3 kPa | 1031.2
8634.6 kPa | 1031.2
8664.9 kPa | 1031.3
8693.6 kPa | 1031.2
8722 kPa | 1031.2
8757 kPa | 1031.2
8785.7 kPa | 1031.2
8815.3 kPa | 1031.3
8851 kPa | 1031.3
8880.8 kPa | 1031.3
8916.7 kPa | 1031.4
8947.2 kPa | 1031.4
8977.7 kPa | 1031.5
9015.1 kPa | 1031.4
9048.4 kPa | 1031.5
9079.8 kPa | 1031.5
9105.3 kPa | 1031.6
9137.4 kPa | 1031.5
9181.7 kPa | 1031.6
9214.1 kPa | 1031.5
9239.9 kPa | 1031.6
9278.9 kPa | 1031.6
9312 kPa | 1031.6
9352.1 kPa | 1031.7
9391.1 kPa | 1031.5
9424.9 kPa | 1031.7
9459.7 kPa | 1031.8
9501.9 kPa | 1031.8
9536.7 kPa | 1031.9
9571.9 kPa | 1031.8
9607.4 kPa | 1031.8
9650.6 kPa | 1031.8
9687.7 kPa | 1031.8
9732.6 kPa | 1032
9765 kPa | 1032
9791.2 kPa | 1032
9822.2 kPa | 1031.9
9848.9 kPa | 1032.1
9875.6 kPa | 1032.1
9907.5 kPa | 1032
9935 kPa | 1032
9961.9 kPa | 1032.1
9989 kPa | 1032.1
10021 kPa | 1032.1
10048 kPa | 1032.1
10082 kPa | 1032.2
10110 kPa | 1032.1
10138 kPa | 1032.2
10166 kPa | 1032.2
10200 kPa | 1032.2
10228 kPa | 1032.2
10262 kPa | 1032.2
10292 kPa | 1032.4
10321 kPa | 1032.3
10356 kPa | 1032.4
10385 kPa | 1032.5
10415 kPa | 1032.5
10445 kPa | 1032.5
10481 kPa | 1032.4
10512 kPa | 1032.5
10542 kPa | 1032.4
10579 kPa | 1032.5
10610 kPa | 1032.6
10641 kPa | 1032.6
10672 kPa | 1032.6
10710 kPa | 1032.5
10742 kPa | 1032.6
10774 kPa | 1032.6
10806 kPa | 1032.7
10845 kPa | 1032.8
10877 kPa | 1032.7
10916 kPa | 1032.7
10948 kPa | 1032.7
10982 kPa | 1032.7
11022 kPa | 1032.7
11055 kPa | 1032.8
11089 kPa | 1032.8
11123 kPa | 1032.9
11165 kPa | 1032.9
11200 kPa | 1032.8
11242 kPa | 1032.9
11279 kPa | 1033
11316 kPa | 1033
11352 kPa | 1033
11384 kPa | 1033.1
11409 kPa | 1033
11434 kPa | 1033.1
11464 kPa | 1033
11489 kPa | 1033.1
11520 kPa | 1033.2
11545 kPa | 1033.1
11573 kPa | 1033.1
11598 kPa | 1033.2
11625 kPa | 1033.2
11655 kPa | 1033.2
11681 kPa | 1033.3
11713 kPa | 1033.3
11740 kPa | 1033.2
11766 kPa | 1033.3
11793 kPa | 1033.3
11825 kPa | 1033.4
11853 kPa | 1033.3
11880 kPa | 1033.5
11914 kPa | 1033.4
11944 kPa | 1033.4
11971 kPa | 1033.4
11999 kPa | 1033.4
12033 kPa | 1033.4
12061 kPa | 1033.5
12089 kPa | 1033.5
12122 kPa | 1033.6
12151 kPa | 1033.6
12180 kPa | 1033.6
12214 kPa | 1033.5
12243 kPa | 1033.7
12272 kPa | 1033.6
12367 kPa | 1033.8
12397 kPa | 1033.7
12432 kPa | 1033.7
12462 kPa | 1033.8
12499 kPa | 1033.8
12530 kPa | 1033.9
12555 kPa | 1033.8
12591 kPa | 1033.9
12623 kPa | 1033.9
12660 kPa | 1033.9
12691 kPa | 1033.9
12724 kPa | 1033.9
12762 kPa | 1033.9
12794 kPa | 1034.1
12826 kPa | 1033.9
12858 kPa | 1034
12897 kPa | 1034.1
12930 kPa | 1034.1
12969 kPa | 1034.1
13003 kPa | 1034.2
13037 kPa | 1034.3
13072 kPa | 1034.3
13115 kPa | 1034.3
13152 kPa | 1034.3
13184 kPa | 1034.2
13211 kPa | 1034.3
13233 kPa | 1034.3
13255 kPa | 1034.4
13281 kPa | 1034.4
13303 kPa | 1034.4
13326 kPa | 1034.4
13352 kPa | 1034.3
13375 kPa | 1034.4
13398 kPa | 1034.5
13420 kPa | 1034.5
13447 kPa | 1034.5
13470 kPa | 1034.5
13493 kPa | 1034.5
13520 kPa | 1034.5
13543 kPa | 1034.6
13570 kPa | 1034.5
13593 kPa | 1034.6
13616 kPa | 1034.6
13639 kPa | 1034.7
13667 kPa | 1034.5
13690 kPa | 1034.6
13718 kPa | 1034.6
13742 kPa | 1034.6
13766 kPa | 1034.7
13794 kPa | 1034.6
13819 kPa | 1034.6
13843 kPa | 1034.7
13867 kPa | 1034.7
13896 kPa | 1034.8
13920 kPa | 1034.7
13945 kPa | 1034.8
13974 kPa | 1034.9
13998 kPa | 1034.8
14027 kPa | 1034.8
14052 kPa | 1034.9
14215 kPa | 1035
14240 kPa | 1034.9
14265 kPa | 1034.9
14296 kPa | 1035.1
14322 kPa | 1035
14348 kPa | 1035.1
14379 kPa | 1035
14405 kPa | 1035
14431 kPa | 1035
14462 kPa | 1035.1
14490 kPa | 1035
14518 kPa | 1035.2
14544 kPa | 1035.1
14571 kPa | 1035.2
14603 kPa | 1035.1
14630 kPa | 1035.2
14658 kPa | 1035.3
14690 kPa | 1035.3
14717 kPa | 1035.3
14749 kPa | 1035.4
14805 kPa | 1035.4
14833 kPa | 1035.3
14867 kPa | 1035.3
14895 kPa | 1035.4
14923 kPa | 1035.5
14957 kPa | 1035.4
14986 kPa | 1035.4
15014 kPa | 1035.5
15048 kPa | 1035.6
15077 kPa | 1035.6
15105 kPa | 1035.6
15140 kPa | 1035.6
15169 kPa | 1035.7
15199 kPa | 1035.6
15229 kPa | 1035.5
15265 kPa | 1035.6
15294 kPa | 1035.6
15325 kPa | 1035.7
15360 kPa | 1035.7
15390 kPa | 1035.7
15421 kPa | 1035.8
15456 kPa | 1035.8
15487 kPa | 1035.8
15517 kPa | 1035.8
15554 kPa | 1035.8
15585 kPa | 1035.9
15616 kPa | 1035.9
15653 kPa | 1036
15685 kPa | 1035.9
15716 kPa | 1036
15748 kPa | 1036
